{"source": "paper PMC5218480", "about": "(PLoS ONE, 2017)", "tested_on": "MV-4-11 cells", "assay": "Gene expression microarray analysis (Affymetrix PrimeView) and GSEA", "assay_type": "cell-based, human", "parameters": "RFU PODN (11730768_x_at) / Fold change /veh PODN (11730768_x_at) / RFU LINC00158 (11744669_a_at) / Fold change /veh LINC00158 (11744669_a_at) / RFU DUSP10 (11751237_a_at) / Fold change /veh DUSP10 (11751237_a_at) / RFU ID3 (11757404_x_at) / Fold change /veh ID3 (11757404_x_at) / RFU PLEKHG5 (11737974_s_at) / Fold change /veh PLEKHG5 (11737974_s_at) / RFU LRRC4B (11730491_at) / Fold change /veh LRRC4B (11730491_at) / RFU GIMAP4 (11747438_a_at) / Fold change /veh GIMAP4 (11747438_a_at) / RFU KRT8 (11758183_x_at) / Fold change /veh KRT8 (11758183_x_at) / RFU CNN1 (11734310_a_at) / Fold change /veh CNN1 (11734310_a_at) / RFU VPS37D (11726825_at) / Fold change /veh VPS37D (11726825_at) / RFU C10orf10 (11716522_x_at) / Fold change /veh C10orf10 (11716522_x_at) / RFU KIR2DL2 /// KIR2DL4 /// KIR2DL5A /// KIR2DL5B /// KIR2DS1 /// KIR2DS2 /// KIR2DS3 /// KIR2DS4 /// KIR3DL3 /// KIR3DL3 /// KIR3DS1 (11738374_at) / Fold change /veh KIR2DL2 /// KIR2DL4 /// KIR2DL5A /// KIR2DL5B /// KIR2DS1 /// KIR2DS2 /// KIR2DS3 /// KIR2DS4 /// KIR3DL3 /// KIR3DL3 /// KIR3DS1 (11738374_at) / RFU C1QL1 (11718748_at) / Fold change /veh C1QL1 (11718748_at) / RFU TMPRSS4 (11747572_a_at) / Fold change /veh TMPRSS4 (11747572_a_at) / RFU HAMP (11756126_x_at) / Fold change /veh HAMP (11756126_x_at) / RFU RNFT2 (11725882_a_at) / Fold change /veh RNFT2 (11725882_a_at) / RFU NR4A2 (11747474_a_at) / Fold change /veh NR4A2 (11747474_a_at) / RFU ABCC12 (11746883_a_at) / Fold change /veh ABCC12 (11746883_a_at) / RFU TMEM136 (11760407_x_at) / Fold change /veh TMEM136 (11760407_x_at) / RFU CLDN22 /// WWC2 (11732394_at) / Fold change /veh CLDN22 /// WWC2 (11732394_at) / RFU HLA-DPB1 (11760878_x_at) / Fold change /veh HLA-DPB1 (11760878_x_at) / RFU SPINT1 (11716480_a_at) / Fold change /veh SPINT1 (11716480_a_at) / RFU GAP43 (11754022_s_at) / Fold change /veh GAP43 (11754022_s_at) / RFU A4GNT (11735810_at) / Fold change /veh A4GNT (11735810_at) / RFU PRB3 (11715151_x_at) / Fold change /veh PRB3 (11715151_x_at) / RFU TUBB4B (11761932_at) / Fold change /veh TUBB4B (11761932_at) / RFU CAPN14 (11732068_a_at) / Fold change /veh CAPN14 (11732068_a_at) / RFU TMCC2 (11721928_a_at) / Fold change /veh TMCC2 (11721928_a_at) / RFU IRGQ (11745062_a_at) / Fold change /veh IRGQ (11745062_a_at) / RFU FAM174B (11720279_a_at) / Fold change /veh FAM174B (11720279_a_at) / RFU TMPRSS4 (11748680_a_at) / Fold change /veh TMPRSS4 (11748680_a_at) / RFU FAM212B (11763350_a_at) / Fold change /veh FAM212B (11763350_a_at) / RFU PLEKHG5 (11743358_a_at) / Fold change /veh PLEKHG5 (11743358_a_at) / RFU ZSCAN30 (11745921_a_at) / Fold change /veh ZSCAN30 (11745921_a_at) / RFU CMKLR1 (11741424_a_at) / Fold change /veh CMKLR1 (11741424_a_at) / RFU LOC101060620 /// MAPK8IP1 (11723275_at) / Fold change /veh LOC101060620 /// MAPK8IP1 (11723275_at) / RFU SPTSSB (11747773_x_at) / Fold change /veh SPTSSB (11747773_x_at) / RFU PRSS12 (11739890_at) / Fold change /veh PRSS12 (11739890_at) / RFU BIN1 (11741810_x_at) / Fold change /veh BIN1 (11741810_x_at) / RFU WNT11 (11732464_a_at) / Fold change /veh WNT11 (11732464_a_at) / RFU C10orf10 (11716521_a_at) / Fold change /veh C10orf10 (11716521_a_at) / RFU C5orf56 (11738089_at) / Fold change /veh C5orf56 (11738089_at) / RFU CYB561 (11721691_x_at) / Fold change /veh CYB561 (11721691_x_at) / RFU ANKRD19P (11752326_a_at) / Fold change /veh ANKRD19P (11752326_a_at) / RFU OR2T12 /// OR2T33 /// OR2T8 (11738714_s_at) / Fold change /veh OR2T12 /// OR2T33 /// OR2T8 (11738714_s_at) / RFU VCAN (11748164_a_at) / Fold change /veh VCAN (11748164_a_at) / RFU JSRP1 (11732532_at) / Fold change /veh JSRP1 (11732532_at) / RFU KRTAP10-11 (11738290_x_at) / Fold change /veh KRTAP10-11 (11738290_x_at) / RFU MYO3A (11730013_a_at) / Fold change /veh MYO3A (11730013_a_at) / RFU EBF3 (11725865_a_at) / Fold change /veh EBF3 (11725865_a_at) / RFU CAMK2N1 (11719241_x_at) / Fold change /veh CAMK2N1 (11719241_x_at) / RFU C5orf56 (11738088_a_at) / Fold change /veh C5orf56 (11738088_a_at) / RFU OLFML3 (11715873_a_at) / Fold change /veh OLFML3 (11715873_a_at) / RFU LOC100653217 /// NTM (11731650_a_at) / Fold change /veh LOC100653217 /// NTM (11731650_a_at) / RFU MAPK11 (11762145_a_at) / Fold change /veh MAPK11 (11762145_a_at) / RFU FIZ1 (11724087_x_at) / Fold change /veh FIZ1 (11724087_x_at) / RFU OASL (11726364_x_at) / Fold change /veh OASL (11726364_x_at) / RFU SOX15 (11748057_x_at) / Fold change /veh SOX15 (11748057_x_at) / RFU CD79A (11719716_a_at) / Fold change /veh CD79A (11719716_a_at) / RFU HIST1H1D (11736915_at) / Fold change /veh HIST1H1D (11736915_at) / RFU CASKIN2 (11723855_a_at) / Fold change /veh CASKIN2 (11723855_a_at) / RFU LOC730098 (11760151_x_at) / Fold change /veh LOC730098 (11760151_x_at) / RFU OR4N2 (11742367_at) / Fold change /veh OR4N2 (11742367_at) / RFU PRRT2 (11749266_a_at) / Fold change /veh PRRT2 (11749266_a_at) / RFU SNX32 (11753110_a_at) / Fold change /veh SNX32 (11753110_a_at) / RFU CDHR5 (11726645_a_at) / Fold change /veh CDHR5 (11726645_a_at) / RFU RCAN1 (11760418_a_at) / Fold change /veh RCAN1 (11760418_a_at) / RFU FAM167A (11723789_a_at) / Fold change /veh FAM167A (11723789_a_at) / RFU FAM26E (11764081_at) / Fold change /veh FAM26E (11764081_at) / RFU ISYNA1 (11749810_s_at) / Fold change /veh ISYNA1 (11749810_s_at) / RFU ACY1 (11761880_at) / Fold change /veh ACY1 (11761880_at) / RFU 11764098_at / Fold change /veh 11764098_at / RFU SAMD14 (11745864_x_at) / Fold change /veh SAMD14 (11745864_x_at) / RFU NPB (11741838_a_at) / Fold change /veh NPB (11741838_a_at) / RFU TMPRSS6 (11731388_a_at) / Fold change /veh TMPRSS6 (11731388_a_at) / RFU KRTAP10-2 (11738614_at) / Fold change /veh KRTAP10-2 (11738614_at) / RFU ARHGAP8 /// PRR5-ARHGAP8 (11727945_x_at) / Fold change /veh ARHGAP8 /// PRR5-ARHGAP8 (11727945_x_at) / RFU KRTAP5-7 /// NADSYN1 (11734609_at) / Fold change /veh KRTAP5-7 /// NADSYN1 (11734609_at) / RFU RASL12 (11751679_a_at) / Fold change /veh RASL12 (11751679_a_at) / RFU CDKN2B (11736163_a_at) / Fold change /veh CDKN2B (11736163_a_at) / RFU PRF1 (11729649_at) / Fold change /veh PRF1 (11729649_at) / RFU, ZNF638 /// ZNF638-IT1 / Fold change vs veh, ZNF638 /// ZNF638-IT1 / RFU, PANK3 / Fold change vs veh, PANK3 / RFU, SH3YL1 / Fold change vs veh, SH3YL1 / RFU, ZEB2 / Fold change vs veh, ZEB2 / RFU, NRIP1 / Fold change vs veh, NRIP1 / RFU, PTTG1IP / Fold change vs veh, PTTG1IP / RFU, CAPN2 / Fold change vs veh, CAPN2 / RFU, MED14 / Fold change vs veh, MED14 / RFU, SNORA58 / Fold change vs veh, SNORA58 / RFU, C1orf63 / Fold change vs veh, C1orf63 / RFU, LRRFIP1 / Fold change vs veh, LRRFIP1 / RFU, NDUFAF7 / Fold change vs veh, NDUFAF7 / RFU, SLC12A2 / Fold change vs veh, SLC12A2 / RFU, IBTK / Fold change vs veh, IBTK / RFU, ESF1 / Fold change vs veh, ESF1 / Fold change vs veh, TMEM50B / RFU, TAOK1 / Fold change vs veh, TAOK1 / RFU, ACBD3 / Fold change vs veh, ACBD3 / RFU, TMA16 / Fold change vs veh, TMA16 / RFU, RWDD3 / Fold change vs veh, RWDD3 / RFU, BCAT1 / Fold change vs veh, BCAT1 / RFU, EDEM3 / Fold change vs veh, EDEM3 / RFU, TMEM33 / Fold change vs veh, TMEM33 / RFU, WDR75 / Fold change vs veh, WDR75 / RFU, AHCTF1 / Fold change vs veh, AHCTF1 / RFU, TFRC / Fold change vs veh, TFRC / RFU, ZDHHC17 / Fold change vs veh, ZDHHC17 / RFU, NOM1 / Fold change vs veh, NOM1 / RFU, ARL8B / Fold change vs veh, ARL8B / RFU, ZBTB11 / Fold change vs veh, ZBTB11 / RFU, TAMM41 / Fold change vs veh, TAMM41 / RFU, KIAA1704 /// LOC100996395 / Fold change vs veh, KIAA1704 /// LOC100996395 / RFU, ING1 / Fold change vs veh, ING1 / RFU, TRMT61B / Fold change vs veh, TRMT61B / RFU, FUBP3 / Fold change vs veh, FUBP3 / RFU, TP53 / Fold change vs veh, TP53 / RFU, TNKS2 / Fold change vs veh, TNKS2 / RFU, ZFP14 / Fold change vs veh, ZFP14 / RFU, ACTR2 / Fold change vs veh, ACTR2 / RFU, PPP3R1 / Fold change vs veh, PPP3R1 / RFU, PIK3R1 / Fold change vs veh, PIK3R1 / RFU, HNRNPA1 / Fold change vs veh, HNRNPA1 / RFU, RNF170 / Fold change vs veh, RNF170 / RFU, ZNF28 / Fold change vs veh, ZNF28 / RFU, RNGTT / Fold change vs veh, RNGTT / RFU, OGT / Fold change vs veh, OGT / RFU, BRD1 / Fold change vs veh, BRD1 / RFU, MARS / Fold change vs veh, MARS / RFU, ZNF655 / Fold change vs veh, ZNF655 / RFU, FAHD1 / Fold change vs veh, FAHD1 / RFU, BDP1 / Fold change vs veh, BDP1 / RFU, LRRCC1 / Fold change vs veh, LRRCC1 / RFU, ARID1A / Fold change vs veh, ARID1A / RFU, ZNF146 / Fold change vs veh, ZNF146 / RFU, ZNF330 / Fold change vs veh, ZNF330 / RFU, GPN3 / Fold change vs veh, GPN3 / RFU, C9orf123 / Fold change vs veh, C9orf123 / RFU, N4BP2L2 / Fold change vs veh, N4BP2L2 / RFU, ARFIP1 / Fold change vs veh, ARFIP1 / RFU, FAM179B / Fold change vs veh, FAM179B / RFU, BCL10 / Fold change vs veh, BCL10 / RFU, UHRF1BP1L / Fold change vs veh, UHRF1BP1L / RFU, BET1 / Fold change vs veh, BET1 / RFU, CNOT2 / Fold change vs veh, CNOT2 / RFU, ZNF268 / Fold change vs veh, ZNF268 / Fold change vs veh, ZNF507 / RFU, DGCR2 / Fold change vs veh, DGCR2 / RFU, WDSUB1 / Fold change vs veh, WDSUB1 / Fold change vs veh, HSP90B1 /// MIR3652 / RFU, ADSS / Fold change vs veh, ADSS / RFU, GK / Fold change vs veh, GK / RFU, ZNF148 / Fold change vs veh, ZNF148 / RFU, TAF9 / Fold change vs veh, TAF9 / RFU, SLC1A5 / Fold change vs veh, SLC1A5 / RFU, SLMO2 / Fold change vs veh, SLMO2 / RFU, ABCC4 / Fold change vs veh, ABCC4 / RFU, LOC101060439 /// RAP1B / Fold change vs veh, LOC101060439 /// RAP1B / RFU, RFX7 / Fold change vs veh, RFX7 / RFU, GTPBP10 / Fold change vs veh, GTPBP10 / RFU, CNEP1R1 / Fold change vs veh, CNEP1R1 / RFU, BIVM-ERCC5 /// ERCC5 / Fold change vs veh, BIVM-ERCC5 /// ERCC5 / RFU, ILF3 / Fold change vs veh, ILF3 / RFU 11762660_at / Fold change /veh 11762660_at / RFU VCAN (11757783_s_at) / Fold change /veh VCAN (11757783_s_at) / RFU DDX43 (11728927_at) / Fold change /veh DDX43 (11728927_at) / RFU KRT8 (11758188_x_at) / Fold change /veh KRT8 (11758188_x_at) / RFU NKD1 (11759106_at) / Fold change /veh NKD1 (11759106_at) / RFU SRD5A1 (11742802_a_at) / Fold change /veh SRD5A1 (11742802_a_at) / RFU TPSAB1 /// TPSB2 (11721975_s_at) / Fold change /veh TPSAB1 /// TPSB2 (11721975_s_at) / RFU GSTM3 (11746129_a_at) / Fold change /veh GSTM3 (11746129_a_at) / RFU IL23R (11737362_x_at) / Fold change /veh IL23R (11737362_x_at) / RFU TMEM51 (11727254_a_at) / Fold change /veh TMEM51 (11727254_a_at) / RFU PIWIL2 (11732686_x_at) / Fold change /veh PIWIL2 (11732686_x_at) / RFU ORM1 (11744905_x_at) / Fold change /veh ORM1 (11744905_x_at) / RFU CCDC152 (11743942_at) / Fold change /veh CCDC152 (11743942_at) / RFU ECM1 (11717891_a_at) / Fold change /veh ECM1 (11717891_a_at) / RFU IL23R (11748794_a_at) / Fold change /veh IL23R (11748794_a_at) / RFU TNFAIP8L3 (11732012_x_at) / Fold change /veh TNFAIP8L3 (11732012_x_at) / RFU MBOAT4 (11741988_at) / Fold change /veh MBOAT4 (11741988_at) / RFU 11764193_at / Fold change /veh 11764193_at / RFU TMEM53 (11763286_at) / Fold change /veh TMEM53 (11763286_at) / RFU MAGEB2 (11727129_at) / Fold change /veh MAGEB2 (11727129_at) / RFU TMEM200A (11744735_a_at) / Fold change /veh TMEM200A (11744735_a_at) / RFU CCDC152 (11751479_a_at) / Fold change /veh CCDC152 (11751479_a_at) / RFU FAM211A (11726209_a_at) / Fold change /veh FAM211A (11726209_a_at) / RFU RGS16 (11746705_a_at) / Fold change /veh RGS16 (11746705_a_at) / RFU VCAN (11755009_s_at) / Fold change /veh VCAN (11755009_s_at) / RFU RHOB (11743442_s_at) / Fold change /veh RHOB (11743442_s_at) / RFU RGS16 (11720943_a_at) / Fold change /veh RGS16 (11720943_a_at) / RFU RGS16 (11720944_at) / Fold change /veh RGS16 (11720944_at) / RFU, VPS4B / Fold change vs veh, VPS4B / RFU, CREB1 / Fold change vs veh, CREB1 / RFU, DNAJC13 / Fold change vs veh, DNAJC13 / RFU, GNAQ / Fold change vs veh, GNAQ / RFU, CDK5R1 / Fold change vs veh, CDK5R1 / RFU, ZRANB3 / Fold change vs veh, ZRANB3 / RFU, CUL4A / Fold change vs veh, CUL4A / RFU, CCNY / Fold change vs veh, CCNY / RFU, UFL1 / Fold change vs veh, UFL1 / RFU, COG3 / Fold change vs veh, COG3 / RFU, DIAPH2 / Fold change vs veh, DIAPH2 / RFU, SKA2 / Fold change vs veh, SKA2 / RFU, AFF3 / Fold change vs veh, AFF3 / RFU, LMF1 / Fold change vs veh, LMF1 / RFU, IPO11 / Fold change vs veh, IPO11 / RFU, DFFB / Fold change vs veh, DFFB / RFU, FOXP1 / Fold change vs veh, FOXP1 / RFU, CARD8 / Fold change vs veh, CARD8 / RFU, STRN3 / Fold change vs veh, STRN3 / RFU, ADK / Fold change vs veh, ADK / RFU, RASSF2 / Fold change vs veh, RASSF2 / RFU, WIPF1 / Fold change vs veh, WIPF1 / RFU, LARP1B / Fold change vs veh, LARP1B / RFU, RASA1 / Fold change vs veh, RASA1 / RFU, RB1 / Fold change vs veh, RB1 / RFU, PPFIA1 / Fold change vs veh, PPFIA1 / RFU, MAT2A / Fold change vs veh, MAT2A / RFU, CCT5 / Fold change vs veh, CCT5 / RFU, WDR92 / Fold change vs veh, WDR92 / RFU, CUX1 / Fold change vs veh, CUX1 / RFU, TTC7A / Fold change vs veh, TTC7A / RFU, TMEM135 / Fold change vs veh, TMEM135 / RFU, DEPTOR / Fold change vs veh, DEPTOR / RFU, CPM / Fold change vs veh, CPM / RFU, DNAJB6 / Fold change vs veh, DNAJB6 / RFU, CACNA2D3 / Fold change vs veh, CACNA2D3 / RFU, DTX4 / Fold change vs veh, DTX4 / RFU, TFCP2 / Fold change vs veh, TFCP2 / RFU, GMCL1 /// GMCL1P1 / Fold change vs veh, GMCL1 /// GMCL1P1 / RFU, AEBP2 / Fold change vs veh, AEBP2 / RFU, SNHG1 /// SNORD22 /// SNORD25 /// SNORD26 /// SNORD27 /// SNORD28 /// SNORD29 /// SNORD31 / Fold change vs veh, SNHG1 /// SNORD22 /// SNORD25 /// SNORD26 /// SNORD27 /// SNORD28 /// SNORD29 /// SNORD31 / Fold change (Aza/veh), C12orf56 (ProbeSet 11735607_a_at) / Fold change (ACY-1035/veh), C12orf56 (ProbeSet 11735607_a_at) / Fold change (Aza/veh), FGFR1OP (ProbeSet 11751329_s_at) / Fold change (ACY-1035/veh), FGFR1OP (ProbeSet 11751329_s_at) / Fold change (Aza/veh), VPS36 (ProbeSet 11739960_a_at) / Fold change (ACY-1035/veh), VPS36 (ProbeSet 11739960_a_at) / RFU SYPL1 (11715823_x_at) / Fold change /veh SYPL1 (11715823_x_at) / RFU IGFBP7 (11715501_s_at) / Fold change /veh IGFBP7 (11715501_s_at) / RFU REEP3 (11722064_at) / Fold change /veh REEP3 (11722064_at) / RFU IGLL1 (11728026_x_at) / Fold change /veh IGLL1 (11728026_x_at): dose or concentration left out as unconfirmed", "settings": "ProbeSet 11717876_a_at; LIST D"}
{"smiles": "Nc1ccc(-c2cccs2)cc1NC(=O)c1ccc2c(c1)cc(C1CC1)n2CCN1CCOCC1", "note": "[ACY-1035]", "values": [{"measurement": "Fold change vs veh, PPFIA1", "result": 0.87}]}
